Results published in patent publication US6464980B1, “MAGE-1 c-terminal immunogenic peptides” (Epimmune Inc., priority 1993, dated 2002).

How the values were obtained:
[1] = target: HLA-A3 class I molecule (Homo sapiens, UniProt P04439); experiment: class I binding assay, HLA-A3; conditions: Table 2 MAGE CTL targets, column A3; unit not given
Procedure: (§1) Peptides comprising the CTL epitopes are synthesized and the ability to bind appropriate MHC molecules is determined in assays using, for example, purified class I molecules and radioiodinated peptides and/or cells expressing empty class I molecules by, for instance, immunofluorescent staining and flow microfluorimetry, peptide-dependent class I assembly assays, and inhibition of CTL recognition by peptide competition. Those peptides that bind to the class I molecule are further chosen for their ability to serve as targets for CTLs derived from afflicted individuals, as well as for their capacity to induce primary in vitro or in vivo CTL responses that can give rise to CTL populations capable of reacting with tumor cells as therapeutic agents. Methods for determining allele-specific peptides and peptide motifs are described in co-pending commonly owned applications U.S. Ser. No. 027,146 and U.S. Ser. No. 027,746, which are incorporated herein by reference.
(§2) These peptides were then evaluated as to their capacity to bind to the appropriate class I molecules using specific binding assays as described in copending and commonly owned application U.S. Ser. No. 08/027,746, incorporated herein by reference.

[2] = test system: HLA-A11 class I molecule; experiment: class I binding assay, HLA-A11; design: species or system human; conditions: Table 2 MAGE CTL targets, column A11; unit not given
Procedure: as §1, §2

[3] = target: HLA-A2 class I molecule (Homo sapiens, UniProt P04439, D140Y/D185E/D98H/E176V/E277Q/G131W/G231S/I119V/I121R/I166T/I218V/L300P/L318F/N151K/N90K/P208A/P217A/Q86G/Q94H/R138H/R169H/T345S); experiment: class I binding assay, HLA-A2; conditions: Table 2 MAGE CTL targets, column A2; unit not given
Procedure: as §1, §2

[4] = test system: HLA-A1 class I molecule; experiment: class I binding assay, HLA-A1; design: species or system human; conditions: Table 2 MAGE CTL targets, column A1; unit not given
Procedure: as §1, §2

[5] = test system: HLA-A24 class I molecule; experiment: class I binding assay, HLA-A24; design: species or system human; conditions: Table 2 MAGE CTL targets, column A24; unit not given
Procedure: as §1, §2

[6] = target: HLA-A1 class I molecule (human); experiment: class I binding assay as described in U.S. Ser. No. 08/027,746; format not described here
[7] = target: HLA-A24.1 class I molecule (human); experiment: as above

A3 (binding to class I molecule) [1] | A11 (binding to class I molecule) [2] | further results | Molecule
0.3100 | 0.3600 | – | ALAETSYVK [Id 1072.38, MAGE-1 C-terminal peptide, position 271,9-mer, motif A03/11]
– | – | A2 (binding to class I molecule) [3]: 0.0150 | ALAETSYVKV [Id 1072.33]
0.0320 | 0.0051 | – | DLVQEKYLEY [1072 40, MAGE-1 peptide, position 242, 10-mer, motif A03]
– | – | A1 (binding to class I molecule) [4]: 0.5600 | ETSYVKVLEY [Id 1072.28, MAGE-1 C-terminal peptide, position 274, 10-mer, motif A01/11]
0.0026 | 0.0340 | – | LVQEKYLEY [Id 1072.42, MAGE-1 peptide, position 243,9-mer, motif A11]
0.1800 | 0.2400 | – | RALAETSYVK (RALAETSYVKVK) [Id 1072.39, MAGE-1 C-terminal peptide, position 270, 10-mer, motif A03/11]
0.4300 | 0.0089 | – | RVRFFFPSLR [Id 1072.37, MAGE-1 C-terminal peptide, position 290, 10-mer, motif A03/11]
– | – | A24 (binding to class I molecule) [5]: 0.0360 | SYVKVLEYVI [Id 1072.43, MAGE-1 C-terminal peptide, position 276, 10-mer, motif A24]
– | – | A1 (binding to class I molecule) [4]: 0.0990 | TSYVKVLEY [Id 1072.29, MAGE-1 C-terminal peptide, position 275,9-mer, motif A01/11]
0.7100 | 0.0100 | – | TSYVKVLEY [Id 1072.36, MAGE-1 C-terminal peptide, position 275,9-mer, motif A03/11]
– | – | A2 (binding to class I molecule) [3]: 0.0140 | YVIKVSARV [Id 1072.34]
0.0190 | 0.0009 | – | YVIKVSARVR [Id 1072.41, MAGE-1 C-terminal peptide, position 283, 10-mer, motif A03]
– | – | binding value under column A1 (quantity not explained) [6]: 0.56 | ETSYVKVLEY
– | – | binding value under column A1 (quantity not explained) [6]: 0.099 | TSYVKVLEY
– | – | binding value under column A24 (quantity not explained) [7]: 0.036 | SYVKVLEYVI
